Assay results published in patent publication US5679684A, “Hydroxyalkylammonium-pyrimidines and nucleoside derivatives, useful as inhibitors of inflammatory cytokines” (Macronex, Inc., priority 1995, dated 1997).

Legend:
TNF-α [1] = assay: Monocyte release of TNF-α; type: cell-based, human; set-up: key to EFFECT: NE: No effect; NT: Not tested; INHIB: Inhibition; STIM: Stimulation; IC20: 20% Inhibitory Concentration; EC50: 50% Effective Concentration; TC: Tolerated Concentration; details: TNFα
superoxide anion = assay: Monocyte superoxide anion (O2) release; type: cell-based, human; set-up: key to EFFECT: NE: No effect; NT: Not tested; INHIB: Inhibition; STIM: Stimulation; IC20: 20% Inhibitory Concentration; EC50: 50% Effective Concentration; TC: Tolerated Concentration
Protocol: Monocyte Superoxide Anion (O2) Release:
Monocytes are prepared as described above and resuspended to 5×10^6 /ml in HBSS containing 10 Mm HEPES, 2 g/l glucose, 0.1% BSA, Ph 7.2. To each well of a 96-well flat bottom, tissue culture plate is added 100 μl of cell suspension and 100 μl of buffer or test materials. Samples are run in quadruplicate. The plate is incubated for 60 min. at 37° C. followed by the addition of 50 μl of buffer containing cytochrome C (5 mg/ml; type VI, horse heart, Sigma) and bovine liver catalase (1500 U/ml; Sigma) in the presence of zymosan A ([…]; 750 μg/ml; Sigma). The plate is incubated an additional 120 minutes at 37° C. during which the absorbance at 550 nm is monitored using a microplate reader incorporating dedicated software for kinetic analysis (Molecular Devices; Menlo Park, Calif.).

[2] = system: human peripheral blood mononuclear cells (PBMC); assay: PBMC proliferation to mitogens (PHA); type: cell-based; set-up: key: NE: No effect; NT: Not tested; INHIB: Inhibition; STIM: Stimulation; IC20: 20% Inhibitory Concentration; EC50: 50% Effective Concentration; TC: Tolerated Concentration
Protocol: (§1) Human Peripheral Blood Mononuclear Cell (PBMC) Isolation:
(§2) Venous blood is obtained from healthy volunteers and mixed with an equal volume of sterile isotonic saline/10 mM HEPES and placed into 50 ml conical polypropylene tubes in 30 ml aliquots. Each aliquot of diluted blood is underlaid with 20-25 ml of sterile Lymphocyte Separation Medium (LSM; Organon-Technika, Durham, N.C.). The tubes are centrifuged at 400 g for 40 minutes at room temperature. The mononuclear cells at the interface are removed and washed twice in sterile isotonic saline/10 mM HEPES followed by a wash in Hank's Balanced Salt Solution (HBSS) or RPMI without serum, depending on their intended use. Cell concentrations for each donor are determined by counting in a haematology and analyser (Serono-Baker).
PBMC Proliferation to Mitogens (PHA):
PBMC are adjusted to 4×10^6 /ml in complete medium. To each well of a 96 well flat bottom tissue culture plate (Falcon 3072) is added 50 μl of cell suspension. Test materials (diluted in complete medium to 2× the desired final concentration) are added in 100 μl volumes to each well. […] The contents of the wells are harvested onto glass fibre filters using a multiple automated sample harvester (Tomtec), and the incorporated […] determined by liquid scintillation spectrophotometry and represented an cpm (counts per minute) incorporated per well.

IL-1β = assay: Monocyte release of IL-1β; type: cell-based, human; set-up: key to EFFECT: NE: No effect; NT: Not tested; INHIB: Inhibition; STIM: Stimulation; IC20: 20% Inhibitory Concentration; EC50: 50% Effective Concentration; TC: Tolerated Concentration; details: IL1β
LTB4 = assay: Monocyte release of LTB4; type: cell-based, human; set-up: key: NE: No effect; NT: Not tested; INHIB: Inhibition; STIM: Stimulation; IC20: 20% Inhibitory Concentration; EC50: 50% Effective Concentration; TC: Tolerated Concentration; details: zymosan A stimulated
Protocol: (§3) Monocyte Release of PGE2, LTB4, and PAF:
(§4) Monocytes isolated as described above, were washed and resuspended in RPM1 containing 5 mg/ml HSA at 2×10^6 cells/ml and added to wells of a 48-well plates. The cells were allowed to adhere for 2 hours then washed in HBSS-BSA-HEPES buffer. Test materials were added at four concentrations (175 μl) for 60 minutes; then the monocytes were stimulated by addition of […] zymosan A (175 μl of 2× desired final concentration added). Supernatant medium was collected from the wells after 90 minutes incubation and stored at -20° C. until assayed. Supernatants were assayed for PGE2, LTB4 or PAF using specific scintillation proximity assays (SPA).

[3] = Endotoxin testing (kinetic chromogenic procedure); set-up: key: NE: No effect; NT: Not tested; INHIB: Inhibition; STIM: Stimulation; IC20: 20% Inhibitory Concentration; EC50: 50% Effective Concentration; TC: Tolerated Concentration
Protocol: All batches of media and reagents are tested to ensure they are free of endotoxins before they are used. This laboratory uses a kinetic chromogenic procedure (Kinetic QCL; Whittaker Bioproducts) for the determination of endotoxin, performed using the Thermomax Plate reader from Molecular Devices. The plate reader incorporates dedicated software for the computer analysis of all data. Samples are tested following the manufacturer's instructions, at 3 different concentrations, in triplicate. Reference Standard Endotoxin (United States Pharmacopeia) obtained at a concentration of 10,000 endotoxin units/ml, is used to generate a standard curve to determine the actual concentration of endotoxin in the samples (sensitivity =/>0.005 endotoxin units/ml).

IL-8 = assay: Monocyte release of IL-8; type: cell-based, human; set-up: key to EFFECT: NE: No effect; NT: Not tested; INHIB: Inhibition; STIM: Stimulation; IC20: 20% Inhibitory Concentration; EC50: 50% Effective Concentration; TC: Tolerated Concentration; details: IL8
[4] = system: human peripheral blood mononuclear cells (PBMC); assay: Two-way mixed lymphocyte reaction (MLR); type: cell-based; set-up: key: NE: No effect; NT: Not tested; INHIB: Inhibition; STIM: Stimulation; IC20: 20% Inhibitory Concentration; EC50: 50% Effective Concentration; TC: Tolerated Concentration
Protocol: as §1, §2
Two-Way Mixed Lymphocyte Reaction (MLR):
PBMC are prepared as described for the mitogen assays, but resuspended to 2×10^6 cells/ml in complete medium. Fifty μl of cell suspension from two different individuals is then added to each well of a 96-well flat bottom tissue culture plate. An additional 100 μl of complete medium, dexamethasone or test compounds are then added to each well, the plates are incubated for 6 days at 37° C., and then pulsed with ^3 H-thymidine and harvested as previously described.

MTS = type: cell-based; set-up: key to EFFECT: NE: No effect; NT: Not tested; INHIB: Inhibition; STIM: Stimulation; IC20: 20% Inhibitory Concentration; EC50: 50% Effective Concentration; TC: Tolerated Concentration
Tissue Factor = assay: Monocyte procoagulant activity (Tissue Factor); type: cell-based, human; set-up: key to EFFECT: NE: No effect; NT: Not tested; INHIB: Inhibition; STIM: Stimulation; IC20: 20% Inhibitory Concentration; EC50: 50% Effective Concentration; TC: Tolerated Concentration
Protocol: Monocyte Procoagulant Activity (Tissue Factor):
The adhered monocytes remaining on the 48-well tissue culture plates after removal of the supernatants above, are used to measure levels of Tissue Factor production. The cells are solubilized overnight at 4° C. in 10% Triton-X100 in PBS, diluted to 1% Triton-X100 with PBS then assayed by ELISA for Tissue Factor.

PAF = assay: Monocyte release of PAF; type: cell-based, human; set-up: key: NE: No effect; NT: Not tested; INHIB: Inhibition; STIM: Stimulation; IC20: 20% Inhibitory Concentration; EC50: 50% Effective Concentration; TC: Tolerated Concentration; details: zymosan A stimulated
Protocol: as §3, §4

IL-6 = assay: Monocyte release of IL-6; type: cell-based, human; set-up: key to EFFECT: NE: No effect; NT: Not tested; INHIB: Inhibition; STIM: Stimulation; IC20: 20% Inhibitory Concentration; EC50: 50% Effective Concentration; TC: Tolerated Concentration; details: IL6
monocytes = assay: Inhibition of monocyte chemotaxis; type: cell-based, human; set-up: key to EFFECT: NE: No effect; NT: Not tested; INHIB: Inhibition; STIM: Stimulation; IC20: 20% Inhibitory Concentration; EC50: 50% Effective Concentration; TC: Tolerated Concentration; details: chemoattractant FMLP
Protocol: Inhibition of Monocyte Chemotaxis:
Monocytes are prepared as previously described, and resuspended at 5×10^6 cells/ml in HBSS, 0.1% BSA (HBSS-BSA). Fluorophore labeling of the cells is carried out by adding calcein-AM to the above cells at a final concentration of 2 μM. Following a 30 minute incubation at 37° C. in humidified 5% CO2, the labeled monocytes are washed twice and incubated in a range of dilutions of the test materials for 60 minutes at 37° C. in humidified 5% CO2. The pre-treated, calcein-AM loaded cells are then added in triplicate to the wells of the top compartment of a NeuroProbe (Cabin, John, M.D.) 96-well chemotaxis chamber (2×10^5 cells/well) and permitted to migrate through a 10 μm thick bonded polycarbonate membrane (5 μm porosity; NeuroProbe Inc; Cabin, John, M.D.) towards the wells of the lower compartment containing the chemoattractant (FMLP) at 5×10^-9 M. After a 90 minute incubation at 37° C. in a humidified chamber, the wells of the upper chambers are aspirated, the monocyte-associated membrane removed, non-migrating cells wiped off and the filters permitted to air dry to 15 minutes. The number of cells migrating through the membranes are quantified by measuring the fluorescent intensity of the migrating cells in a fluorescent microplate reader (CytoFluor 2300, Millipore Corp., Bedford, Mass.)

GM-CSF = assay: Monocyte release of GM-CSF; type: cell-based, human; set-up: key to EFFECT: NE: No effect; NT: Not tested; INHIB: Inhibition; STIM: Stimulation; IC20: 20% Inhibitory Concentration; EC50: 50% Effective Concentration; TC: Tolerated Concentration
LDH = type: cell-based; set-up: key to EFFECT: NE: No effect; NT: Not tested; INHIB: Inhibition; STIM: Stimulation; IC20: 20% Inhibitory Concentration; EC50: 50% Effective Concentration; TC: Tolerated Concentration
PGE2 = assay: Monocyte release of PGE2; type: cell-based, human; set-up: key: NE: No effect; NT: Not tested; INHIB: Inhibition; STIM: Stimulation; IC20: 20% Inhibitory Concentration; EC50: 50% Effective Concentration; TC: Tolerated Concentration; details: zymosan A stimulated
Protocol: as §3, §4

TNF-α [5] = details: associated with HIV-1 inhibition; cited from earlier work
HIV-1 = details: advanced HIV-1 infection and AIDS; cited from earlier work
latent HIV-1 = details: monocytoid (U1) cell line; cited from earlier work

## CCCCCCCCCCCCCCCC(=O)OCC[N+](C)(C)CCOCn1cc(C)c(=O)[nH]c1=O [Example 6, N,N-Dimethyl-N-2-(hexadecanoyloxy)ethyl-N-[N^1-(5-methyl-2,4-dioxopyrimidinyl)methoxyethyl]ammonium iodide]
TNF-α [1]; Homo sapiens, Monocyte
  EC50: 5.5 µM
TNF-α [1]
  EFFECT: INHIB
Superoxide anion
  EFFECT: INHIB
Superoxide anion; Homo sapiens, Monocyte
  EC50: 34 µM
[2]
  EFFECT: NE
IL-1β; Homo sapiens, Monocyte
  EC50: 7.5 µM
IL-1β
  EFFECT: INHIB
LTB4
  EFFECT: NE
[3]
  EFFECT: NE
IL-8; Homo sapiens, Monocyte
  EC50: 2.9 µM
IL-8
  EFFECT: INHIB
[4]
  EFFECT: NE
MTS
  EFFECT: TC
MTS; mts assay, effect TC, read-out: Tolerated Concentration (EC50)
  MNTC: 100 µM
Tissue Factor
  EFFECT: INHIB
Tissue Factor; Homo sapiens, Monocyte
  EC50: 4.3 µM
PAF
  EFFECT: NE
IL-6; Homo sapiens, Monocyte
  EC50: 5.7 µM
IL-6
  EFFECT: INHIB
monocytes; Homo sapiens, Monocyte
  EC50: 47 µM
monocytes
  EFFECT: INHIB
GM-CSF
  EFFECT: INHIB
GM-CSF; Homo sapiens, Monocyte
  EC50: 12.6 µM
LDH
  EFFECT: TC
LDH; ldh assay, effect TC, read-out: Tolerated Concentration (EC50)
  MNTC: 100 µM
PGE2
  EFFECT: NE

## O=C1CCC(N2C(=O)c3ccccc3C2=O)C(=O)N1 (centres unmarked) [Thalidomide]
TNF-α [5]
  agonist-induced TNF-α protein and mRNA production: reduction
HIV-1
  inhibition of activation of virus in PBMC, patients: 16 out of 17
Latent HIV-1
  activation of latent HIV-1: suppress the activation of latent HIV-1
